Reference: patent US11395835B2, “Use of common gamma chain cytokines for the visualization, isolation and genetic modification of memory T lymphocytes” (OSPEDALE SAN RAFFAELE S.R.L., priority 2005, dated 2022)

Experiments:
[1] = system: CD4+ T cells from TS/A-LACK tumor draining LN; experiment: TO-PRO-3 viability of CFSE-labeled LN cultures maintained in cytokines; assay type: cell-based, mice; conditions: total CD4+ cells, after a week in culture with the cytokine alone
Description: (§1) FIG. 5. IL-7 and IL-2 favor T cell survival and the optimal expression of Bcl-2. Cells from TS/A-LACK tumor draining LN were labeled with the CFSE vital dye and cultured in the absence (−) or in the presence of IL-7, IL-2, IL-15 and IL-6 alone. After 7 days, cells were recovered and stained with anti-CD4 mAb and TO-PRO-3 (A) and with anti-Bcl-2 mAb (B, C). A) representative dot plots of total CD4^+ cells are shown. The frequencies of total CD4^+ TOPRO-3^+ (brackets) and of CFSE dim, TO-PRO-3″ cells (bold) are reported. B-C) events are shown after physical gating on viable CD4^+ T lymphocytes. C) thin line: isotype control; thin lines-shaded profile: anti-Bcl-2 Ab, medium cultured cells; thick lines: anti-Bcl-2 Ab, cytokine-cultured cells. The experiment is representative of 2 independent determinations.
(§2) Twenty days after tumor cell injection mice were sacrificed and the axillary, brachial and inguinal peripheral lymph nodes (LN) draining and distal (non draining LN) to the site of tumor growth were recovered. In the experiments of dendritic cell (DC) vaccination, mice were sacrificed fourteen days after DC administration and the axillary, brachial and inguinal LN were surgically excised. […]

[2] = system: LACK-specific CD4+ T cells from LN of TS/A-LACK tumor-bearing BALB/c mice; experiment: Ag-free short-term culture: I-Ad/LACK multimer staining, LACK-specific intracellular cytokine release, CFSE dilution; assay type: cell-based; conditions: CFSE-labeled LN cells, 7 days, versus nil cultures
Experimental: Twenty days after tumor cell injection mice were sacrificed and the axillary, brachial and inguinal peripheral lymph nodes (LN) draining and distal (non draining LN) to the site of tumor growth were recovered. In the experiments of dendritic cell (DC) vaccination, mice were sacrificed fourteen days after DC administration and the axillary, brachial and inguinal LN were surgically excised. LN cells were cultured in 24 well plates at the density of 5×10^6 in complete medium in the absence or in the presence of recombinant murine IL-7 (200 ng/ml), IL-2 (20 ng/ml), IL-6 (45 ng/ml), or IL-15 (100 ng/ml) (all from Peprotech). In parallel cultures, cells were in vitro stimulated with the LACK-derived MHC II-restricted peptide (5 (25)) and 5×10^6 irradiated syngeneic splenocytes. As a control similar cultures were set up from syngeneic naïve mice. […]
(§3) 5 μm polystyrene sulfate latex beads (Interfacial Dynamics) were coated with I-A^d/LACK dimers (20 μg/ml) and anti-CD28 mAb (37.51; 2 μg/ml) (LACK aAPC) or with anti-CD28 mAb only (control aAPC). Coating of the proteins was monitored by flow cytometry analysis. […] The total number of Ag-specific IL-2^+/IFN-γ^+ T cells was determined by multiplying the percentage by the total number of Trypan Blue-negative LN cells.

[3] = system: CD4+ T cells from TS/A-LACK tumor draining LN; experiment: Bcl-2 expression in CFSE-labeled LN cultures maintained in cytokines; assay type: cell-based, mice; conditions: 7 days culture with the cytokine alone
Description: as §1
FIG. 6. Phenotype and subset representation of lymphocytes maintained in IL-7 and IL-2. CFSE-labeled TS/A-LACK-tumor-draining LN cultures were maintained for a week in the presence of IL-7 or IL-2. Thereafter the cells were stained with anti CD4, CD44, CD25, CD127, and CD132 mAbs. A) representative dot plots report the expression levels of CD44, CD62L, CD25, CD127, and CD132 of viable CD4+. B) overlay of CD4^+, CFSE dim cells derived from IL-7 (thin lines) and IL-2 (thick lines) cultures in the absence of Ag-stimulation are shown. […]

[4] = system: AH-1-specific CD8+ T cells; experiment: Cytokine-driven culture of tumor-draining LN, AH-1-specific intracellular cytokine release; assay type: cell-based, BALB/c mice; conditions: 7 days culture without Ag re-stimulation; undetectable ex vivo
Experimental: FIG. 10. IL-7 favors the accumulation of tumor-specific memory CD8^+ T cells otherwise undetectable ex vivo. A) BALB/c mice (5 mice per group) were challenged with 3×10^5 TS/A-LACK tumor cells and sacrificed 21 days later. Cells from pools of tumor draining LN (A-C) were analyzed ex vivo (A) and after 7 days in culture in the absence or in the presence of IL-7, IL-2, IL-15, IL-6 (B-C). A) Representative dot plots depict IL-2 and IFN-γ production by KJ1.26^− CD8^+ T cells. The frequency (A, B) and total number (C) of AH-1-specific cytokine-producing KJ1.26^− CD8^+ T cells is reported.
as §2, §3

[5] = system: naïve CD4+ T cells of 16.2β mice stimulated with LACK-pulsed APC; experiment: Ag-driven proliferation of naive T cells with inhibitors (CFSE); assay type: cell-based; conditions: 7 days
Description: (§4) FIG. 11. Intermediate memory CD4^+ T cells accumulate in the presence of IL-7 in a cell-density dependent, CsA-sensitive manner. Cells derived from the axillary, brachial and inguinal LN of naïve (A, B) and TS/A-LACK tumor-bearing (C-E) 16.20 mice were labeled with CFSE and respectively cultured for 7 days in plain medium, in the presence of LACK peptide (Ag) (A, B) or IL-7 (C-E) in the absence (nil) or in the presence of the indicated inhibitors. At the end of the culture the cells were stimulated for 5 h with L/28 aAPCs, and intracellular cytokine release was determined. A-D) Histograms show the CFSE dilution profile of equivalent numbers of (7×10^4) CD4^+ T cells. In A and C the thin lines reflect the CFSE profile of CD4+ T cells cultured in plain medium, while the thick lines depict the CFSE profile of CD4+ T cells cultured in Ag or IL-7, respectively. In B and D, thin line: cells cultured in the absence of the inhibitor, thick line: cells cultured in the presence of the inhibitor. E) Dot plots are shown after gating on viable CD4^+ T cells. Percentages indicate the frequency of LACK-specific cytokine secreting cells.
Twenty days after tumor cell injection mice were sacrificed and the axillary, brachial and inguinal peripheral lymph nodes (LN) draining and distal (non draining LN) to the site of tumor growth were recovered. […]

[6] = system: CD4+ T cells from tumor-draining LN of TS/A-LACK tumor-bearing 16.2β mice; experiment: IL-7-driven accumulation of fast-proliferating memory CD4+ T cells with inhibitors; assay type: cell-based; conditions: IL-7-driven cultures, 7 days
Description: as §4, with “In B and D, thin line: cells cultured in the absence of the inhibitor, thick line: cells cultured in the presence of the inhibitor. E) Dot plots are shown after gating on viable CD4^+ T cells. Percentages indicate the frequency of LACK-specific cytokine secreting cells.” left out
as §3

Compound | TO-PRO-3+ dead cells [1] | in vitro proliferation of CD4+ T cells and accumulation of LACK-specific CD4+ T cells [2] | CD4+ T cells expressing optimal (high) Bcl-2 levels [3] | frequency and total number of AH-1-specific CD8+ T cells [4] | effect on Ag-driven T cell proliferation [5] | effect on IL-7-driven accumulation of fast-dividing CFSEdim CD4+ T cells and LACK-specific cells [6]
IL-6: recombinant IL-6 used as negative control cytokine | 73% | failed to support | 10.5% | not increased |  | 
Oc1ccc(-c2nc(-c3ccncc3)c(-c3ccc(F)cc3)[nH]2)cc1 [SB202190] |  |  |  |  | failed to inhibit | only partially inhibited
CC(C)(C)n1nc(-c2ccc(Cl)cc2)c2c(N)ncnc21 [PP2] |  |  |  |  |  | only partially inhibited
